From patent US9868697B2, “Phytosphingosine derivatives, and composition comprising same for preventing and treating inflammatory skin diseases, autoimmune diseases, and hyperkeratosis diseases” (THE CATHOLIC UNIVERSITY OF KOREA INDUSTRY—ACADEMIC …, priority 2011, dated 2018) come the findings set out here.

For series [1], the system named is human-derived keratinocytes and primary culture skin keratinocytes. Briefly: Apoptosis in keratinocytes, FITC staining and TUNEL assay. It counts as cell-based. The following applies: 24 hours, FIGS. 7C to 7E. How it is done:
(§1) Therefore, in order to verify the degree of the cytotoxicity of the YG-II-6 compounds, their cytotoxicity on human-derived keratinocytes was confirmed by using the WST-1 reagent. In order to verify the effects of the compounds on the expression of proteins associated with apoptosis, the keratinocytes were treated with corresponding concentrations of the respective compound samples and stimulated with TPA for 24 hours, and the expression levels of proteins were confirmed by western blot assay. In addition, human-derived keratinocytes and primary culture skin keratinocytes were treated with the compounds, and after 24 hours, subjected to FITC staining and TUNEL assay, and the skin tissues isolated from TPA-induced mice was subjected to FITC staining

Series [2] concerns NF-κB. Briefly: Nuclear translocation of NF-κB, immunostaining, TPA-stimulated skin keratinocytes. It is filed as cell-based, human. The following applies: TPA stimulation, FIG. 1B. How it is done:
(§2) Herein, in order to verify the effect of novel synthetic YG-II-6 compounds and their lead compound, phytosphingosine, on phosphorylation and degradation of IκBα, which is a protein that inhibits the activity of NF-κB by forming a complex with NF-κB, skin keratinocytes were pre-treated with respective compounds for 1 hour and then stimulated with 400 nM TPA for 15 minutes and 30 minutes, respectively. In order to verify the phosphorylation of NF-κB and the expression level of NF-κB in the cytoplasm and nucleus, skin keratinocytes were stimulated for 15 minutes and 1 hour, respectively. The results were confirmed by western blot analysis. In addition, the nuclear translocation of NF-κB was confirmed through reaction with antibodies, fluorescent labeling, and direct observation by microscopy. In order to verify the activity of the respective compounds at the transcription stage, cells were transfected with plasmids labeled with NF-κB luciferase reporter, and the luciferase activity was measured by the luciferase assay. In addition, the phosphorylation of IκBα and NF-κB was measured in the PTA-stimulated mouse skin.

In series [3] the test system is NF-κB. Nature of the series: NF-κB luciferase reporter assay, TPA stimulation. It counts as cell-based, human. The following applies: FIG. 1C. As to the method:
as §2

The subject of series [4] is human-derived keratinocytes. Nature of the series: Cytotoxicity on human-derived keratinocytes, WST-1 reagent. It is filed as cell-based. The following applies: WST-1, FIG. 7A. As to the method:
as §1

In the next series the test system is ERK1/2, p38, and JNK. Briefly: MAP kinase phosphorylation in TPA-stimulated skin keratinocytes, western blot. It counts as cell-based, human. The following applies: 400 nM TPA for 15 minutes, FIG. 4. As to the method:
In order to verify the effects of the respective compounds on MAP kinase, skin keratinocytes were treated with the respective compounds for 1 hour, and then stimulated with 400 nM TPA for 15 minutes. The level of phosphorylation was confirmed by western blot assay.

Series [5] relates to NF-κB. Briefly: Phosphorylation of IκBα and NF-κB in TPA-stimulated skin keratinocytes, western blot. It counts as cell-based, human. The following applies: for inhibitory effect on the NF-κB activation: overall conclusion of the NF-κB tests. As to the method:
as §2

A further series concerns mouse skin tissues. Nature of the series: Apoptosis in skin tissues of TPA-induced mice, FITC staining. It is filed as in vivo. Particulars: FIGS. 7C to 7E. As to the method: as §1

Molecules are shown by their SMILES. Entries after “also recorded” stand apart in the source; their conditions may differ.

Take `CCCCCCCCCCCCCC[C@@H](O)[C@@H](O)[C@@H](N)CO` [phytosphingosine]: in series [1], the “apoptosis in the TPA-stimulated cells” value is given as “induced apoptosis”. Further, the “nuclear translocation of NF-κB” value in the series with NF-κB [2] is recorded as “inhibited the nuclear translocation of NF-κB”. For the same compound, in the series on NF-κB [3], the “NF-κB luciferase activity increased by TPA stimulation” value was “inhibited the luciferase activity”. Moreover, the “concentration at which cytotoxicity was shown” value in series [4] lay within 5 to 10 µM. Further, in the series with ERK1/2, p38, and JNK, the “phosphorylation of ERK1/2, p38, and JNK” value is “relatively weaker inhibitory activity than the YG-II-6 compounds; also recorded: no or little inhibitory effect”. In addition, in the series on NF-κB [5], the “inhibitory effect on the NF-κB activation” value is recorded as “inhibited the activation of NF-κB”. Moreover, the “phosphorylation of IκBα and NF-κB increased by TPA stimulation” value in the series on NF-κB [5] (skin keratinocytes, 1 hour pre-treatment, 400 nM TPA, FIG. 1A) is “inhibited the phosphorylation of IκBα and NF-κB”. The “apoptosis in the mouse skin tissues” value in the series with mouse skin tissues is “induced apoptosis”.
In the case of `CCCCCCCCCCCCCC[C@@H](O)[C@@H](O)[C@H](CO)NC(=O)/C=C/C(=O)O` [fYG-II-6, (E)-4-oxo-4-(((2S,3S,4R)-1,3,4-trihydroxyoctadecan-2-yl)amino)but-2-enoic acid], the “inhibitory effect on the NF-κB activation” value in the series with NF-κB [5] is listed as “relatively greater inhibitory effect than mYG-II-6”.
